From US10994015B2, “EGFR proteolysis targeting chimeric molecules and associated methods of use” (Arvinas Operations, Inc., priority 2016, dated 2021)

Legend:
[1] = target: EGFR Exon20NPG (Homo sapiens (Human), UniProt P00533, INS770NPG); experiment: TR-FRET assay for ERBB kinases; assay type: biochemical; settings: geometric mean if measured more than once
Method in brief: (§1)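 Compounds pre-incubated 10 min with kinase in HEPES pH 7.5 buffer (MgCl2, DTT, Pluronic), then reaction started with substrate mix (3 mM ATP, 30 µM fluorescein-poly-GluTyr, stock levels) for 10 min at room temperature. EDTA-quenched, detected by Tb-pY20 antibody TR-FRET (520/490 nm emission).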

[2] = target: HER3 (Homo sapiens (Human), UniProt P21860); experiment: TR-FRET assay for ERBB kinases; assay type: biochemical; settings: geometric mean if measured more than once
[3] = target: EGFR L858R/T790M/C797S (Homo sapiens (Human), UniProt P00533, C797S/L858R/T790M); experiment: TR-FRET assay for ERBB kinases; assay type: biochemical; settings: geometric mean if measured more than once
Method in brief: (§2)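 Read-out is TR-FRET between a terbium anti-phosphotyrosine (pY20) antibody and phosphorylated fluorescein-labelled poly-GluTyr, excited at 340 nm with donor 490 nm and acceptor 520 nm emission. Phosphorylation ran 10 min at room temperature after a 10 min compound–enzyme pre-incubation. The substrate mix contained 3 mM ATP.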

[4] = target: EGFR WT (Homo sapiens (Human), UniProt P00533); experiment: TR-FRET assay for ERBB kinases; assay type: biochemical; settings: geometric mean if measured more than once
Method in brief: as §2

[5] = target: EGFR L858R/T790M (Homo sapiens (Human), UniProt P00533, L858R/T790M); experiment: TR-FRET assay for ERBB kinases; assay type: biochemical; settings: geometric mean if measured more than once
Method in brief: as §2

[6] = target: EGFR L858R/T790M double mutant (H1975) (Homo sapiens (Human), UniProt P00533, L858R/T790M); experiment: EGFR protein degradation assay (Western blot); assay type: cell-based; settings: 72 hours, 300 nM to 10 nM
Method in brief: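 Cells carrying the relevant EGFR form were plated at 300,000 cells per well in 6-well plates and left to attach overnight. After washing in ice-cold PBS, cells were lysed in 400 μl lysis buffer with protease inhibitors, scraped, and clarified at 10 000 rpm for 10 minutes. EGFR levels were then assessed by Western blot with tubulin as loading control.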

[7] = target: EGFR L858R/T790M/C797S triple mutant (H520*) (Homo sapiens (Human), UniProt P00533, C797S/L858R/T790M); experiment: EGFR protein degradation assay (Western blot); assay type: cell-based; settings: 72 hours, 300 nM to 10 nM
Method in brief: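 EGFR loss in the triple-mutant line measured by immunoblot: clarified lysates normalised by BCA, run on 4-12% Bis-Tris gels, blotted to PVDF, probed with HRP anti-rabbit secondary. Before lysis, cells were dosed from 1, 0.3, 0.1, 0.03 and 0.01 mM DMSO stocks (not final concentrations) after overnight culture at 37° C.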

[8] = target: EGFR Δ19/746/750 T790M (Homo sapiens (Human), UniProt P00533, DEL746-750/T790M); experiment: TR-FRET assay for ERBB kinases; assay type: biochemical; settings: geometric mean if measured more than once
Method in brief: as §1

[9] = target: EGFR Δ19/746/750 (Homo sapiens (Human), UniProt P00533, DEL746-750); experiment: TR-FRET assay for ERBB kinases; assay type: biochemical; settings: geometric mean if measured more than once
Method in brief: as §1

[10] = target: EGFR-wt (MDA-MB-231 or MCF7 or A549 or OVCAR8) (Homo sapiens (Human), UniProt P00533); experiment: EGFR protein degradation assay (Western blot); assay type: cell-based; settings: 72 hours, 300 nM to 10 nM
Method in brief: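 Cells carrying the relevant EGFR form were plated at 300,000 per well in 6-well plates and left overnight to attach. For harvest, cells were rinsed once in ice-cold PBS and lysed in 400 μl lysis buffer containing protease inhibitors. Lysates were cleared at 10 000 rpm for 10 minutes and their protein content measured by BCA. Then 10 μg per sample was separated by SDS/PAGE at 165V for 2 hours, and EGFR was detected by ECL on a Chemidoc.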

HER3, sequence (P21860 20-1342, species assumed): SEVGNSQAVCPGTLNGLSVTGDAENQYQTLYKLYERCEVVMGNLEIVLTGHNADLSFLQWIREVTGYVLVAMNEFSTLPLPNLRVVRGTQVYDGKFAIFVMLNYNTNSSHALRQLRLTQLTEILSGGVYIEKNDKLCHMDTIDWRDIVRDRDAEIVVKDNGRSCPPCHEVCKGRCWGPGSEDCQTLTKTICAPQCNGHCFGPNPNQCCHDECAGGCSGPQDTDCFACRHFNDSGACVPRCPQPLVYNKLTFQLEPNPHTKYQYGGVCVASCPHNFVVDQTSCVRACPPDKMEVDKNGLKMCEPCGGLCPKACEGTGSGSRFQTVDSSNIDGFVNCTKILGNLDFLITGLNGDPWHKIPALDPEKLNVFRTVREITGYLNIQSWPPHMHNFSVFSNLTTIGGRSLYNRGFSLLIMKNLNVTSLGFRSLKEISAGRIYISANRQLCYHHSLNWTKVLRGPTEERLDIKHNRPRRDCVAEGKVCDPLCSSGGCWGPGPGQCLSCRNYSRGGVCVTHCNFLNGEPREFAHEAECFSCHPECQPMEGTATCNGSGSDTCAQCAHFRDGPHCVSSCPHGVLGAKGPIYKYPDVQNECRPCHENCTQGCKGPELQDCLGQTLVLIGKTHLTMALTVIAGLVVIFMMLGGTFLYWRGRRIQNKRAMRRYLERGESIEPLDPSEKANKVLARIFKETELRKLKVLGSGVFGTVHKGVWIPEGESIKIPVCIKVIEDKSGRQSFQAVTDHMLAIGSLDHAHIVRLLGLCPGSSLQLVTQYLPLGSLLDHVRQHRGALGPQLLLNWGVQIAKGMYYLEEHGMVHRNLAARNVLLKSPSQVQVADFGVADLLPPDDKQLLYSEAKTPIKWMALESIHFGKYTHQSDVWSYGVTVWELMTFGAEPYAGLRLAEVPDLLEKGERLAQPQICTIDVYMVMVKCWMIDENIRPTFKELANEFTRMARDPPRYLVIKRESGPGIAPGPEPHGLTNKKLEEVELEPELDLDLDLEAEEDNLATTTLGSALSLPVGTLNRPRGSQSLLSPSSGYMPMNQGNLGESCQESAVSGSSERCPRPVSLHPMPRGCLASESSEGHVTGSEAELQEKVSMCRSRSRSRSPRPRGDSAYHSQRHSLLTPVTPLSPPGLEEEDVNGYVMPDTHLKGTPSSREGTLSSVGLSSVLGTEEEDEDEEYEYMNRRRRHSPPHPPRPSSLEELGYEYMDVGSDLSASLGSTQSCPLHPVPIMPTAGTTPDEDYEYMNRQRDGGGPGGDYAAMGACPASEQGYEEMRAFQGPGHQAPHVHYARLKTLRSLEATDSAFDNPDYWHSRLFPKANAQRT
EGFR L858R/T790M, sequence (P00533 25-1210 T790M/L858R): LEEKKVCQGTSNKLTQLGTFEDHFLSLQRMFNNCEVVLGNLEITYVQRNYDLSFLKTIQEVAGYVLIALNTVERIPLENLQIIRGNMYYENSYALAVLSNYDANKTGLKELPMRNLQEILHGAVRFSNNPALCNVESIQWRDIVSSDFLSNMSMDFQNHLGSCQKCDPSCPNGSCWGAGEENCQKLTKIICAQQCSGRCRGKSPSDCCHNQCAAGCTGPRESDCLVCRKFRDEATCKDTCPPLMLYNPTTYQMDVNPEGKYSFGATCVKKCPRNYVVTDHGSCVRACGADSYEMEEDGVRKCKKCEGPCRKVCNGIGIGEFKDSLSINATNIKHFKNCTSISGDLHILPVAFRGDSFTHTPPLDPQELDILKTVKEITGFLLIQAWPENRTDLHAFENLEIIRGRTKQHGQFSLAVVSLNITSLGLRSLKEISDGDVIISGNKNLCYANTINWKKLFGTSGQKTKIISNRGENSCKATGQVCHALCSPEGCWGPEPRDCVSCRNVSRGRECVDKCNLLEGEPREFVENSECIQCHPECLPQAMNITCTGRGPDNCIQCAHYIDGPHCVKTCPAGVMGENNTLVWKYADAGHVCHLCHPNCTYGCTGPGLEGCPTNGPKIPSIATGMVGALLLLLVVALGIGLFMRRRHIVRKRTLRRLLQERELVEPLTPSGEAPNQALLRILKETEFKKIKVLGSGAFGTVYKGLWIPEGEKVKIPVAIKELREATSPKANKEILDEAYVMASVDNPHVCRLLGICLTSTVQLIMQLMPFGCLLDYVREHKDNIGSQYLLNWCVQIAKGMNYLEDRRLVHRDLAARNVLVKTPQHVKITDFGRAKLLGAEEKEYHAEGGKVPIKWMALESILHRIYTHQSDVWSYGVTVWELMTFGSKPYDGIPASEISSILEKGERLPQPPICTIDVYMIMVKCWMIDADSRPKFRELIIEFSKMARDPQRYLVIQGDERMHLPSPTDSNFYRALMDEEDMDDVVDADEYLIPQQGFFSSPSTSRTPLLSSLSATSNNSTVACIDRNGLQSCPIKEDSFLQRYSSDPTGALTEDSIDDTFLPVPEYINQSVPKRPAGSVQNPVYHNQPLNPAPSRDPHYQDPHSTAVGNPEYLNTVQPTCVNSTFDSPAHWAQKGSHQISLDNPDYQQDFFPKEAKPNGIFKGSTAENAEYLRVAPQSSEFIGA
EGFR L858R/T790M double mutant (H1975), sequence (P00533 25-1210 T790M/L858R): as above
EGFR Δ19/746/750, sequence (P00533 other isoform, or with tags, fused parts or gaps del 1-694/del 746-750 limits assumed): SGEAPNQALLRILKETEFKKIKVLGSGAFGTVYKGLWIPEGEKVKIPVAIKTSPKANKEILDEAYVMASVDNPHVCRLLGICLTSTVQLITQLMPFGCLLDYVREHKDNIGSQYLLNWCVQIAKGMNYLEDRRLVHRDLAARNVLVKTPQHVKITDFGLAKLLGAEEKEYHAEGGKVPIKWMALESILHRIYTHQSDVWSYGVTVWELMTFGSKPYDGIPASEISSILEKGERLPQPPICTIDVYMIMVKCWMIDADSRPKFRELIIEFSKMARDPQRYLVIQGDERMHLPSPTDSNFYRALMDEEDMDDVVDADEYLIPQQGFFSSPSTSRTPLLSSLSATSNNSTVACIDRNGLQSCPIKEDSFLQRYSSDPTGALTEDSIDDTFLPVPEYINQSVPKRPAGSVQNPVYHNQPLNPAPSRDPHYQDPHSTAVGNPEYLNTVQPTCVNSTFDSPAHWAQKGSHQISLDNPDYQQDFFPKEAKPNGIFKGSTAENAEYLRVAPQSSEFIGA
EGFR Δ19/746/750 T790M, sequence (P00533 other isoform, or with tags, fused parts or gaps T790M/del 1-694/del 746-750 limits assumed): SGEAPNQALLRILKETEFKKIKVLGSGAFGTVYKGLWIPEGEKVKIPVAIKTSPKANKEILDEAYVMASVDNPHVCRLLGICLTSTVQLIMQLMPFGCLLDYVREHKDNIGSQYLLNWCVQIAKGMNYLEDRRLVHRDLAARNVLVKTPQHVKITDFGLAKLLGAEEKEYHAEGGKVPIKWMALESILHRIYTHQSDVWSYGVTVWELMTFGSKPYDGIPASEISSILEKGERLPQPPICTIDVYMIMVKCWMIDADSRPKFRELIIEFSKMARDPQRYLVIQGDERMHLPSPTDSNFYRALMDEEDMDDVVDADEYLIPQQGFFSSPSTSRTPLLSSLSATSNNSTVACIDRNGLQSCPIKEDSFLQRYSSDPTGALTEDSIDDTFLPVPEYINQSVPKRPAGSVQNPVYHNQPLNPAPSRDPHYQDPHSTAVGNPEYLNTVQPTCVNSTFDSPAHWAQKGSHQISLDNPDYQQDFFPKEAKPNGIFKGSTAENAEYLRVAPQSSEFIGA

Compound | IC50 [1] [µM] | IC50 [2] [µM] | IC50 [3] [µM] | IC50 [4] [µM] | IC50 [5] [µM] | EGFR protein remaining, EGFR L858R/T790M double mutant [6] | EGFR protein remaining, EGFR L858R/T790M/C797S triple mutant [7] | IC50 [8] [µM] | IC50 [9] [µM] | EGFR protein remaining, EGFR-wt [10]
COC1CCN(c2nccc(Nc3cc4c(cn3)nc(COCCOCCOCCOCCOCC(=O)N[C@H](C(=O)N3C[C@H](O)C[C@H]3C(=O)N[C@@H](C)c3ccc(-c5scnc5C)cc3)C(C)(C)C)n4C(C)C)n2)CC1 [Example 81, (2S,4R)-1-((S)-18-(tert-butyl)-1-(1-isopropyl-6-((2-(4-methoxypiperidin-1-yl)pyrimidin-4-yl)amino)-1H-imidazo[4,5-c]pyridin-2-yl)-16-oxo-2,5,8,11,14-pentaoxa-17-azanonadecan-19-oyl)-4-hydroxy-N—((S)-1-(4-(4-methylthiazol-5-yl)phenyl)ethyl)pyrrolidine-2-carboxamide] | 7.1 | > 30 | > 30 | 2.4 | 8.6 | C (>80% EGFR protein remaining after 72 hours of incubation with the test compound at a concentration of 300 nM) |  |  |  | 
O=C1CCC(N2C(=O)c3ccc(NCCOCCOCCOCC#Cc4cccc5c4C(=O)N(C(C(=O)Nc4nccs4)c4cc(F)ccc4O)C5)cc3C2=O)C(=O)N1 (stereo not shown) [Example 82, 2-(7-(3-(2-(2-(2-((2-(2,6-dioxopiperidin-3-yl)-1,3-dioxoisoindolin-5-yl)amino)ethoxy)ethoxy)ethoxy)prop-1-yn-1-yl)-1-oxoisoindolin-2-yl)-2-(5-fluoro-2-hydroxyphenyl)-N-(thiazol-2-yl)acetamide] | > 30 | > 30 | 0.45 | 3.8 | 0.77 | C (>80% EGFR protein remaining after 72 hours of incubation with the test compound at a concentration of 300 nM) |  |  |  | 
COC1CCN(c2nccc(Nc3cc4c(cn3)nc(COCCON3CCN(c5ccc6c(c5)C(=O)N(C5CCC(=O)NC5=O)C6=O)CC3)n4C(C)C)n2)CC1 (stereo not shown) [compound 72] | 22 | > 30 | 30 | > 30 | > 30 | C (>80% EGFR protein remaining after 72 hours of incubation with the test compound at a concentration of 300 nM) |  |  |  | 
COC1CCN(c2nccc(Nc3cc4c(cn3)nc(COCCOCCON3CCN(c5ccc6c(c5)C(=O)N(C5CCC(=O)NC5=O)C6=O)CC3)n4C(C)C)n2)CC1 (stereo not shown) [compound 74] | > 30 | > 30 | 10 | > 30 | > 30 | C (>80% EGFR protein remaining after 72 hours of incubation with the test compound at a concentration of 300 nM) |  |  |  | 
COC1CCN(c2nccc(Nc3cc4c(cn3)nc(COCCOCCOCCOCCON3CCN(c5ccc6c(c5)C(=O)N(C5CCC(=O)NC5=O)C6=O)CC3)n4C(C)C)n2)CC1 (stereo not shown) [compound 75] | > 30 | > 30 | > 30 | > 30 | > 30 | C (>80% EGFR protein remaining after 72 hours of incubation with the test compound at a concentration of 300 nM) |  |  |  | 
Cc1ncsc1-c1ccc([C@H](C)NC(=O)[C@@H]2C[C@@H](O)CN2C(=O)[C@@H](NC(=O)CN2CCN(CCOCCOCCOCCOCC#Cc3cccc4c3C(=O)N(C(C(=O)Nc3nccs3)c3cc(F)ccc3O)C4)CC2)C(C)(C)C)cc1 (stereo partly shown) [compound 309] |  |  | 0.025 | 0.0072 | 0.12 |  | C (>80% EGFR protein remaining after 72 hours of incubation with the test compound at a concentration of 300 nM) | 5.1 | 1.9 | 
Cc1ncsc1-c1ccc([C@H](C)NC(=O)[C@@H]2C[C@@H](O)CN2C(=O)[C@@H](NC(=O)COCCOCCOCCN2CCN(CCOCC#Cc3cccc4c3C(=O)N(C(C(=O)Nc3nccs3)c3cc(F)ccc3O)C4)CC2)C(C)(C)C)cc1 (stereo partly shown) [compound 310] |  |  | 0.022 | 0.14 | 0.11 |  | B (≤80% and >50% EGFR protein remaining after 72 hours of incubation with the test compound at a concentration between 300 nM and 10 nM) | 8.4 | 6 | 
Cc1ncsc1-c1ccc([C@H](C)NC(=O)[C@@H]2C[C@@H](O)CN2C(=O)[C@@H](NC(=O)COCCN2CCN(CCOCCOCCOCC#Cc3cccc4c3C(=O)N(C(C(=O)Nc3nccs3)c3cc(F)ccc3O)C4)CC2)C(C)(C)C)cc1 (stereo partly shown) [compound 311] |  |  | 0.016 | 0.097 | 0.065 |  | B (≤80% and >50% EGFR protein remaining after 72 hours of incubation with the test compound at a concentration between 300 nM and 10 nM) | 4.6 | 9 | 
CC(C)n1nc(N2CCN(CC3CCN(c4ccc5c(c4)C(=O)N(C4CCC(=O)NC4=O)C5=O)CC3)CC2)c2cnc(Nc3ccnc(-c4cnn(S(=O)(=O)C5CC5)c4)n3)cc21 (stereo not shown) [compound 312] |  |  | 0.00035 | 0.095 | 0.00067 |  | B (≤80% and >50% EGFR protein remaining after 72 hours of incubation with the test compound at a concentration between 300 nM and 10 nM) | 0.0049 | 0.17 | 
CC(C)n1nc(N2CC(CN3CCN(CC4CCN(c5ccc6c(c5)C(=O)N(C5CCC(=O)NC5=O)C6=O)CC4)CC3)C2)c2cnc(Nc3ccnc(-c4cnn(S(=O)(=O)C5CC5)c4)n3)cc21 (stereo not shown) [compound 313] |  |  | 0.00026 | 0.0014 | 0.00029 |  | A (≤50% EGFR protein remaining after 72 hours of incubation with the test compound at a concentration between 300 nM and 10 nM) | 0.0016 | 0.0075 | C (>80% EGFR protein remaining after 72 hours of incubation with the test compound at a concentration of 300 nM)
CC(C)n1nc(N2CC(CN3CCN(CC4CCN(c5ccc6c(c5)C(=O)N(C5CCC(=O)NC5=O)C6=O)CC4)CC3)C2)c2cnc(Nc3ccnc(-c4cnn(S(=O)(=O)C5CC5)c4)n3)cc21 (stereo not shown) [compound 314] |  |  | 0.02 | 0.089 | 0.098 |  | C (>80% EGFR protein remaining after 72 hours of incubation with the test compound at a concentration of 300 nM) | 5.2 | 10 | 
CC(C)n1nc(N2CC(CN[C@H]3C[C@H](Oc4ccc5c(c4)C(=O)N(C4CCC(=O)NC4=O)C5=O)C3)C2)c2cnc(Nc3ccnc(-c4cnn(S(=O)(=O)C5CC5)c4)n3)cc21 (stereo partly shown) [compound 319] |  |  | 0.0008 | 0.0042 | 0.0023 |  | A (≤50% EGFR protein remaining after 72 hours of incubation with the test compound at a concentration between 300 nM and 10 nM) | 0.0003 | 0.0013 | 
